Assay results as given in patent US20070207989A1, “DITERPENE DERIVATIVES FOR THE TREATMENT OF CARDIOVASCULAR, CANCER AND INFLAMMATORY DISEASES” (SaviPu Pharmaceuticals, priority 2006, published 2007).
Values belong to the molecule of their own block, whether it stands above or below them.

Assays:
endothelin receptor = settings: cited from earlier work
ETB receptor = target: T1, ETB receptor (Homo sapiens, UniProt P24530); settings: cited from earlier work
T1 sequence (P24530 27-442): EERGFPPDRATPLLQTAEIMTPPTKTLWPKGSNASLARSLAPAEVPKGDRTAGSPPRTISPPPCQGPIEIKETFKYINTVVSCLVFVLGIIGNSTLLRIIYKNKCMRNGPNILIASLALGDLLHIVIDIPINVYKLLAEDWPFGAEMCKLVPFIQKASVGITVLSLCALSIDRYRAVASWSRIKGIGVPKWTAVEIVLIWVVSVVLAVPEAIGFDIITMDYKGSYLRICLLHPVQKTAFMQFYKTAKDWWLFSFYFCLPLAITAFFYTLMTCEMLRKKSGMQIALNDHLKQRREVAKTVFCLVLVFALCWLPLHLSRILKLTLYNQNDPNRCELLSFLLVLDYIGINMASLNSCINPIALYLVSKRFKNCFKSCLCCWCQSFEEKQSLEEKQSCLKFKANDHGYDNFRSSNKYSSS

ETA receptor = target: T2, ETA receptor (Homo sapiens, UniProt P25101); settings: cited from earlier work
T2 sequence (P25101 21-427): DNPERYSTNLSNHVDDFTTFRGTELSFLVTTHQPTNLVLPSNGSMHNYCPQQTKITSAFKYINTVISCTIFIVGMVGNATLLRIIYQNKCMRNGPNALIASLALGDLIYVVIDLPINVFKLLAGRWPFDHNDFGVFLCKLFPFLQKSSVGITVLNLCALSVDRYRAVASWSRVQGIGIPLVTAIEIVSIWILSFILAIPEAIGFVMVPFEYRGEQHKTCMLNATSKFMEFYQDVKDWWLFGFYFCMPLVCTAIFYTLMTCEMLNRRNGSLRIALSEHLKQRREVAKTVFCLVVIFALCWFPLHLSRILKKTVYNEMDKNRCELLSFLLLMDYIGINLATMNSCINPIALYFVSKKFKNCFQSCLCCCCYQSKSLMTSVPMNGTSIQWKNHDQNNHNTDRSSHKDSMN

[1] = target: T3, endothelin receptor A (ETA) (Homo sapiens, UniProt P25101); test: inhibition of endothelin receptor A (ETA)
T3 sequence (P25101 21-427): T2 sequence (P25101 21-427)

NF-κB [2] = test: inhibition of NF-κB / NF-κB binding to κB consensus DNA
tumor cell lines = test: inhibition of tumor cell lines; format: cell-based
NF-κB [3] = settings: cited from earlier work
carcinoma cell lines = settings: four cell lines; cited from earlier work
human cancer cell lines = settings: cited from earlier work

Compound: Cc1noc(NS(=O)(=O)c2cccc3c(N(C)C)cccc23)c1C [BMS-1 82874]
endothelin receptor antagonist activity / binding (in words) (endothelin receptor): active

Compound: COc1cccc(Oc2c(NS(=O)(=O)c3ccc(C(C)(C)C)cc3)ncnc2OCCO)c1 [Ro-46-2005]
endothelin receptor antagonist activity / binding (in words) (endothelin receptor): orally active non-peptidic antagonist

Compound: CCCOc1ccc2c(c1)[C@@H](c1ccc(OC)cc1OCC(=O)O)[C@H](C(=O)O)[C@H]2c1ccc2c(c1)OCO2 [SB-209670]
affinity for ETB receptor (concentration range in words) (ETB receptor): nanomolar
affinity for ETA receptor (concentration range in words) (ETA receptor): subnanomolar

inhibition of endothelin receptor A (ETA) [1]: modest inhibition
inhibition of NF-κB (NF-κB [2]): modest inhibition
Compound: Cc1coc2c1C(=O)C(=O)c1c-2ccc2c1CCCC2(C)C [compound 8, tanshinone IIA]
inhibition of tumor cell lines (tumor cell lines): modest inhibition
blocking of NFκB binding to κB consensus DNA (NF-κB [3]): block NFκB from binding to κB consensus DNA
potency against carcinoma cell lines (in words) (carcinoma cell lines): lack significant activity

Compound: C=C1CCCc2c1ccc1c2C(=O)C(=O)c2c(C)coc2-1 [compound 9, methylene tanshinquinone]
potency against carcinoma cell lines (in words) (carcinoma cell lines): more potent than any of the tanshindiols

Compound: COC(=O)[C@@]1(C)CCCc2c1ccc1c2C(=O)C(=O)c2c(C)coc2-1 [compound 10, methyl tanshinonate]
potency against carcinoma cell lines (in words) (carcinoma cell lines): equally potent as the tanshindiols

Compound: Cc1coc2c1C(=O)C(=O)c1c-2ccc2c1CCCC2(C)CO (centres unmarked) [compound 11, tanshinone IIB]
potency against carcinoma cell lines (in words) (carcinoma cell lines): very little activity

Compound: Cc1cccc2c1ccc1c3occ(C)c3c(=O)oc21 [compound 20, neo-tanshinlactone]
potency relative to tamoxifen citrate (human cancer cell lines; breast cancer, in some cases): ten times more potent
selectivity relative to tamoxifen citrate (human cancer cell lines; breast cancer, in some cases): twenty times more selective
effectiveness against human cancer cell lines (human cancer cell lines; several human cancer cell lines, particularly breast cancer): very effective

Compound: COc1cc(OC)nc(O[C@H](C(=O)O)C(OC)(c2ccccc2)c2ccccc2)n1 [darusentan]
endothelin receptor antagonist activity / binding (in words) (endothelin receptor): effective endothelin receptor antagonists

Compound: Cc1coc2c1C(=O)C(=O)c1c-2ccc2c(C)cccc12 [tanshinone 17]
potency against carcinoma cell lines (in words) (carcinoma cell lines): lack significant activity
